A value given as a limit tells only on which side of the number the result lay.

One experiment relates to HCV 1b genotype. The experiment in a line: HCV replicon assay, 1b genotype. Conditions: Hepatitis C virus; HCV 1b genotype replicon; activity ranges; read-out: 1b EC50 in Range. The format is cell-based. The protocol: An HCV Replion assay was utilized in the present disclosure, and was prepared, conducted and validated as described in commonly owned PCT/US2006/022197 and in O'Boyle et. al. Antimierob Agents Chemother. 2005 April; 49(4):1346-53. Assay methods incorporating luciferase reporters have also been used as described (Apath.com).
HCV-neo replicon cells and HCV replicon cells containing mutations in the NS5A region were used to test the currently described family of compounds. The compounds were determined to have more than 10-fold less inhibitory activity on cells containing mutations than wild-type cells. Thus, the compounds of the present disclosure can be effective in inhibiting the function of the HCV NS5A protein and are understood to be as effective in combinations as previously described in application PCT/US2006/022197 and commonly owned WO/04014852. Further, the compounds of the present disclosure can be effective against the HCV 1b genotype. It should also be understood that the compounds of the present disclosure can inhibit multiple genotypes of HCV. […] In one embodiment, compounds of the present disclosure are inhibitory versus 1a, 1b, 2a, 2b, 3a, 4a, and 5a genotypes. Activity ranges are as follows: A=>100 nM; B=1-100 nM; C=101-999 pM; and D=1-100 pM.
Background: In antiviral work, replicon cells carry a viral genome segment that copies itself.
As a reminder, the EC50 is the midpoint of the concentration-response curve. With `COC(=O)N[C@H](C(=O)N1CCC[C@H]1C(=O)Nc1noc2cc(-c3ccc(-c4cnc([C@@H]5CCCN5C(=O)[C@@H](NC(=O)OC)C(C)C)[nH]4)cc3)ccc12)C(C)C` [Example 5], the EC50 lay in the range of 0.101 to 0.999 nM.

For `CN(C)[C@@H](C(=O)N1CCC[C@H]1C(=O)Nc1noc2cc(-c3ccc(-c4cnc([C@@H]5CCCN5C(=O)[C@@H](c5ccccc5)N(C)C)[nH]4)cc3)ccc12)c1ccccc1` [Example 6], the EC50 is 0.101 to 0.999 nM.

With `COC(=O)N[C@@H](C(=O)N1CCC[C@H]1C(=O)Nc1noc2cc(-c3ccc(-c4cnc([C@@H]5CCCN5C(=O)[C@H](NC(=O)OC)C(C)C)[nH]4)cc3)ccc12)C(C)C` [Example 7], the 50% effective concentration (EC50) was more than 100 nM.

In the case of `COC(=O)N[C@H](C(=O)N1CCC[C@H]1C(=O)Nc1noc2cc(-c3ccc(-c4cnc([C@@H]5CCCN5C(=O)[C@@H](NC(=O)OC)[C@@H](C)OC)[nH]4)cc3)ccc12)[C@@H](C)OC` [Example 8], the EC50 fell in the range of 0.101 to 0.999 nM.

As for `COC(=O)N[C@@H](C)C(=O)N1CCC[C@H]1C(=O)Nc1noc2ccc(-c3ccc(-c4cnc([C@@H]5CCCN5C(=O)[C@H](C)NC(=O)OC)[nH]4)cc3)cc12` [Example 12], the EC50 lay in the range of 1 to 100 nM.

With `COC(=O)N[C@H](C(=O)N1CCC[C@H]1C(=O)Nc1noc2ccc(-c3ccc(-c4cnc([C@@H]5CCCN5C(=O)[C@@H](NC(=O)OC)C(C)C)[nH]4)cc3)cc12)C(C)C` [Example 13], the EC50 was 1 to 100 nM.

With `COC(=O)N[C@H](C(=O)N1CCC[C@H]1C(=O)Nc1noc2ccc(-c3ccc(-c4cnc([C@@H]5CCCN5C(=O)[C@@H](NC(=O)OC)[C@@H](C)OC)[nH]4)cc3)cc12)[C@@H](C)OC` [Example 14], the EC50 lay in the range of 1 to 100 nM.

Regarding `COCC[C@H](NC(=O)OC)C(=O)N1CCC[C@H]1C(=O)Nc1noc2ccc(-c3ccc(-c4cnc([C@@H]5CCCN5C(=O)[C@H](CCOC)NC(=O)OC)[nH]4)cc3)cc12` [Example 15], the EC50 fell in the range of 1 to 100 nM.

On to `COC(=O)N[C@@H](C(=O)N1CCC[C@H]1C(=O)Nc1noc2ccc(-c3ccc(-c4cnc([C@@H]5CCCN5C(=O)[C@H](NC(=O)OC)C(C)C)[nH]4)cc3)cc12)C(C)C` [Example 16], for which the EC50 was more than 100 nM.

Regarding `CN(C)[C@@H](C(=O)N1CCC[C@H]1C(=O)Nc1noc2ccc(-c3ccc(-c4cnc([C@@H]5CCCN5C(=O)[C@@H](c5ccccc5)N(C)C)[nH]4)cc3)cc12)c1ccccc1` [Example 17], the EC50 was 1 to 100 nM.

Take `COC(=O)N[C@@H](C)C(=O)N1CCC[C@H]1C(=O)Nc1n[nH]c2cc(-c3ccc(-c4cnc([C@@H]5CCCN5C(=O)[C@H](C)NC(=O)OC)[nH]4)cc3)ccc12` [Example 22, (S)-1-((S)-2-Methoxycarbonylaminopropanoyl)-N-(6-(4-(2-((S)-1-((S)-2-methoxycarbonylaminopropanoyl)pyrrolidin-2-yl)-1H-imidazol-5-yl)phenyl)-1H-indazol-3-yl)pyrrolidine-2-carboxamide]: the EC50 lay within 1 to 100 nM.

As for `CCN(CC)[C@@H](C(=O)N1CCC[C@H]1C(=O)Nc1n[nH]c2cc(-c3ccc(-c4cnc([C@@H]5CCCN5C(=O)[C@@H](c5ccccc5)N(CC)CC)[nH]4)cc3)ccc12)c1ccccc1` [Example 23], the EC50 lay within 0.001 to 0.1 nM.

Turning to `COC(=O)N[C@H](C(=O)N1CCC[C@H]1C(=O)Nc1n[nH]c2cc(-c3ccc(-c4cnc([C@@H]5CCCN5C(=O)[C@@H](NC(=O)OC)C(C)C)[nH]4)cc3)ccc12)C(C)C` [Example 24], the EC50 lay in the range of 0.101 to 0.999 nM.

Consider `COC(=O)N[C@H](C(=O)N1CCC[C@H]1C(=O)Nc1n[nH]c2cc(-c3ccc(-c4cnc([C@@H]5CCCN5C(=O)[C@@H](NC(=O)OC)[C@@H](C)OC)[nH]4)cc3)ccc12)[C@@H](C)OC` [Example 25], for which the EC50 lay within 1 to 100 nM.

As to `COC(=O)N[C@@H](C)C(=O)N1CCC[C@H]1C(=O)Nc1n[nH]c2ccc(-c3ccc(-c4cnc([C@@H]5CCCN5C(=O)[C@H](C)NC(=O)OC)[nH]4)cc3)cc12` [Example 29], the EC50 was more than 100 nM.

Regarding `CN(C)[C@@H](C(=O)N1CCC[C@H]1C(=O)Nc1n[nH]c2ccc(-c3ccc(-c4cnc([C@@H]5CCCN5C(=O)[C@@H](c5ccccc5)N(C)C)[nH]4)cc3)cc12)c1ccccc1` [Example 30], the EC50 was 1 to 100 nM.

In the case of `COC(=O)N[C@H](C(=O)N1CCC[C@H]1C(=O)Nc1n[nH]c2ccc(-c3ccc(-c4cnc([C@@H]5CCCN5C(=O)[C@@H](NC(=O)OC)C(C)C)[nH]4)cc3)cc12)C(C)C` [Example 31], the EC50 is more than 100 nM.

Take `COCC[C@H](NC(=O)OC)C(=O)N1CCC[C@H]1C(=O)Nc1n[nH]c2ccc(-c3ccc(-c4cnc([C@@H]5CCCN5C(=O)[C@H](CCOC)NC(=O)OC)[nH]4)cc3)cc12` [Example 32]: the EC50 fell in the range of 1 to 100 nM.

As for `COC(=O)N[C@H](C(=O)N1CCC[C@H]1C(=O)Nc1n[nH]c2ccc(-c3ccc(-c4cnc([C@@H]5CCCN5C(=O)[C@@H](NC(=O)OC)[C@@H](C)OC)[nH]4)cc3)cc12)[C@@H](C)OC` [Example 33], the EC50 was more than 100 nM.

On to `COC(=O)N[C@@H](C(=O)N1CCC[C@H]1C(=O)Nc1n[nH]c2ccc(-c3ccc(-c4cnc([C@@H]5CCCN5C(=O)[C@H](NC(=O)OC)c5ccccc5)[nH]4)cc3)cc12)c1ccccc1` [Example 34], for which the EC50 was in the range of 1 to 100 nM.

Still in this experiment, the particulars now being: Hepatitis C virus; HCV 1b genotype replicon; read-out: 1b EC50.
As to `COC(=O)N[C@H](C(=O)N1CCC[C@H]1C(=O)Nc1noc2ccc(-c3ccc(-c4cnc([C@@H]5CCCN5C(=O)[C@@H](NC(=O)OC)C(C)C)[nH]4)cc3)cc12)C(C)C` [Example 13], the EC50 stood at 30.1 nM.

`CCN(CC)[C@@H](C(=O)N1CCC[C@H]1C(=O)Nc1n[nH]c2cc(-c3ccc(-c4cnc([C@@H]5CCCN5C(=O)[C@@H](c5ccccc5)N(CC)CC)[nH]4)cc3)ccc12)c1ccccc1` [Example 23]: the EC50 worked out at 0.043 nM.

`COC(=O)N[C@H](C(=O)N1CCC[C@H]1C(=O)Nc1n[nH]c2ccc(-c3ccc(-c4cnc([C@@H]5CCCN5C(=O)[C@@H](NC(=O)OC)[C@@H](C)OC)[nH]4)cc3)cc12)[C@@H](C)OC` [Example 33]: the EC50 was found to be 1200 nM.
